In brackets after ≈: the same amount, converted by molar mass.
Key:
Format in all cases: cell-based
wild-type E. coli A-1261 = assay: MIC of prodrug with or without alkaline phosphatase or esterase
Description: Minimal Inhibitory Concentrations (MICs; mg/L) were determined in cation-adjusted Mueller-Hinton Broth by a microdilution method following the description given in “Methods for Dilution Antimicrobial Susceptibility Tests for Bacteria that Grow Aerobically”, Approved standard, 7th ed., Clinical and Laboratory Standards Institute (CLSI) Document M7-A7, Wayne, Pa., USA (2006).
The compound of Example 86 was tested against wild-type E. coli A-1261 in the absence of alkaline phosphatase or esterase, in the presence of an alkaline phosphatase and in the presence of an esterase. The corresponding antibacterial test results are given in Table 2 hereafter (MICs in mg/L).

K. pneumoniae A-651 = assay: Bacterial growth minimal inhibitory concentration (CLSI broth microdilution); settings: multiply resistant strain (in particular quinolone-resistant), cation-adjusted Mueller-Hinton Broth; for MIC: Klebsiella pneumoniae, A651
Summary of the method: (§1)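 Following CLSI document M7-A7, minimal inhibitory concentrations in mg/L come from microdilution in cation-adjusted Mueller-Hinton broth, tested against quinolone-resistant K. pneumoniae A-651 and quinolone-sensitive E. coli ATCC25922 and P. aeruginosa ATCC27853.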

P. aeruginosa ATCC27853 = assay: as above; settings: quinolone-sensitive strain, cation-adjusted Mueller-Hinton Broth; for MIC: Pseudomonas aeruginosa, ATCC27853
Summary of the method: as §1

E. coli ATCC25922 = assay: as above; settings: quinolone-sensitive strain, cation-adjusted Mueller-Hinton Broth; for MIC: Escherichia coli, ATCC25922
Summary of the method: as §1

Row | Molecule | MIC (K. pneumoniae A-651) | MIC (P. aeruginosa ATCC27853) | MIC (E. coli ATCC25922) | also measured
1 | C[C@@](CCN1Cc2cc(C#CC#CC3CN(CCO)C3)cn2C1=O)(C(=O)NOC(=O)CCc1ccccc1OP(=O)(O)O)S(C)(=O)=O [Example 86, (2R)-2-(3-((4-(6-((1-(2-hydroxyethyl)azetidin-3-yl)buta-1,3-diyn-1-yl)-3-oxo-1H-pyrrolo[1,2-c]imidazol-2(3H)-yl)-2-methyl-2-(methylsulfonyl)butanamido)oxy)-3-oxopropyl)phenyl dihydrogen phosphate] | – | – | – | MIC for E. coli A-1261 In the presence of an alkaline phosphatase (2 i.U./mL) (wild-type E. coli A-1261; alkaline phosphatase 2 i.U./mL): 1 µg/mL; MIC for E. coli A-1261 In the presence of an esterase (10 i.U./mL) (wild-type E. coli A-1261; esterase 10 i.U./mL): 16 µg/mL; MIC for E. coli A-1261 In the absence of alkaline phosphatase or esterase (wild-type E. coli A-1261; no alkaline phosphatase or esterase): 16 µg/mL
2 | CN1C[C@@H](C#CC#Cc2cc3n(c2)C(=O)N(CC[C@](C)(C(=O)NO)S(C)(=O)=O)C3)[C@@H]1CO [Example 95, (2R)—N-hydroxy-4-(6-(((2R,3R)-2-(hydroxymethyl)-1-methylazetidin-3-yl)buta-1,3-diyn-1-yl)-3-oxo-1H-pyrrolo[1,2-c]imidazol-2(3H)-yl)-2-methyl-2-(methylsulfonyl)butanamide] | 1 µg/mL (≈ 2.16 µM) | 0.5 µg/mL (≈ 1.08 µM) | 1 µg/mL (≈ 2.16 µM) | –
3 | C[C@@H]1[C@H](C#CC#Cc2cc3n(c2)C(=O)N(CC[C@](C)(C(=O)NO)S(C)(=O)=O)C3)CN1C [Example 96, (2R)-4-(6-(((2R,3R)-1,2-dimethylazetidin-3-yl)buta-1,3-diyn-1-yl)-3-oxo-1H-pyrrolo[1,2-c]imidazol-2(3H)-yl)-N-hydroxy-2-methyl-2-(methylsulfonyl)butanamide] | 4 µg/mL (≈ 8.96 µM) | 2 µg/mL (≈ 4.48 µM) | 4 µg/mL (≈ 8.96 µM) | –
4 | CN1C[C@H](C#CC#Cc2cc3n(c2)C(=O)N(CC[C@](C)(C(=O)NO)S(C)(=O)=O)C3)[C@H]1CO [Example 97, (2R)—N-hydroxy-4-(6-(((2S,3S)-2-(hydroxymethyl)-1-methylazetidin-3-yl)buta-1,3-diyn-1-yl)-3-oxo-1H-pyrrolo[1,2-c]imidazol-2(3H)-yl)-2-methyl-2-(methylsulfonyl)butanamide] | 1 µg/mL (≈ 2.16 µM) | 0.5 µg/mL (≈ 1.08 µM) | 0.5 µg/mL (≈ 1.08 µM) | –
5 | CN1C[C@H](C#CC#Cc2cc3n(c2)C(=O)N(CC[C@](C)(C(=O)NO)S(C)(=O)=O)C3)[C@H]1CF [Example 98, (2R)—N-hydroxy-4-(6-(((2S,3S)-2-(fluoromethyl)-1-methylazetidin-3-yl)buta-1,3-diyn-1-yl)-3-oxo-1H-pyrrolo[1,2-c]imidazol-2(3H)-yl)-2-methyl-2-(methylsulfonyl)butanamide] | 0.25 µg/mL (≈ 0.538 µM) | 0.5 µg/mL (≈ 1.08 µM) | 0.063 µg/mL (≈ 0.136 µM) | –
6 | C[C@@](CCN1Cc2cc(C#CC#C[C@H]3C[C@H](CO)N(C4COC4)C3)cn2C1=O)(C(=O)NO)S(C)(=O)=O [Example 100, (2R)—N-hydroxy-4-(6-(((3R,5R)-5-(hydroxymethyl)-1-(oxetan-3-yl)pyrrolidin-3-yl)buta-1,3-diyn-1-yl)-3-oxo-1H-pyrrolo[1,2-c]imidazol-2(3H)-yl)-2-methyl-2-(methylsulfonyl)butanamide] | 4 µg/mL (≈ 7.71 µM) | 4 µg/mL (≈ 7.71 µM) | 4 µg/mL (≈ 7.71 µM) | –
7 | (2R)-4-(6-((1-isopropylazetidin-3-yl)buta-1,3-diyn-1-yl)-3-oxo-1H-pyrrolo[1,2-c]imidazol-2(3H)-yl)-2-methyl-2-(methylsulfonyl)-N-((tetrahydro-2H-pyran-2-yl)oxy)butanamide [Example 59] | – | – | – | MIC for K. Pneumoniae A-651 (K. pneumoniae A-651): 0.5 µg/mL; MIC for P. aeruginosa ATCC27853 (P. aeruginosa ATCC27853): 0.5 µg/mL; MIC for E. coli ATCC25922 (E. coli ATCC25922): 1 µg/mL

— patent US10314823B2, “Substituted 1,2-dihydro-3H-pyrrolo[1,2-c]imidazol-3-one antibacterial compounds” (IDORSIA PHARMACEUTICALS LTD, priority 2015, dated 2019)
